In ChEMBL document CHEMBL1201862, “PubChem BioAssay data set” (2004):
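The compound was tested at five concentrations on cells cultured in 96-well plates, with a 48-hour exposure period. Abbreviation: GI50, concentration required for 50% inhibition of growth.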 The source made the active and inactive calls. Rule as the data show it: active = GI50 up to about 1.1 µM and inactive = higher.

How the values were obtained:
Assay in all cases: DTP human tumour cell line panel, 48 h
A549 = test system: A549
NCI-H460 = test system: NCI-H460
NCI-H23 = test system: NCI-H23
MOLT-4 = test system: MOLT-4
OVCAR-5 = test system: OVCAR-5
SN12C = test system: SN12C
SK-MEL-2 = test system: SK-MEL-2
RPMI-8226 = test system: RPMI-8226
OVCAR-8 = test system: OVCAR-8
HOP-18 = test system: HOP-18
CAKI-1 = test system: CAKI-1
OVCAR-3 = test system: OVCAR-3
TK-10 = test system: TK-10
SF-295 = test system: SF-295
EKVX = test system: EKVX
K562 = test system: K562
SR = test system: SR
Hs-578T = test system: Hs-578T
MCF7 = test system: MCF7
DU-145 = test system: DU-145

Measured: GI50

CCN(CC)c1c(C(=O)/C=C/c2ccc(F)cc2)c(-c2ccccc2)nn(C)c1=O
inactive: A549 8.69 µM | NCI-H460 4.49 µM | NCI-H23 4.12 µM | MOLT-4 2.23 µM | OVCAR-5 22.4 µM | SN12C 6.93 µM | SK-MEL-2 4.66 µM | RPMI-8226 2.94 µM | OVCAR-8 4.7 µM | HOP-18 21.2 µM | CAKI-1 11.6 µM | OVCAR-3 3.82 µM | TK-10 17.7 µM | SF-295 12.2 µM | EKVX 13.8 µM | K562 12.4 µM

CCOC(=O)C1(CC)CCCCC(=O)N1 (stereo not drawn)
inactive: A549 > 100 µM | NCI-H460 > 100 µM | NCI-H23 > 100 µM | SN12C > 100 µM | OVCAR-8 > 100 µM | HOP-18 > 100 µM | CAKI-1 > 100 µM | OVCAR-3 > 100 µM | TK-10 > 100 µM | SF-295 > 100 µM | EKVX > 100 µM | K562 > 100 µM

CCn1c2ccccc2c2ccc3c(c21)C(=O)C=CC3=O
inactive: A549 43.6 µM | NCI-H460 20.2 µM | NCI-H23 22.5 µM | MOLT-4 2.07 µM | OVCAR-5 21.5 µM | SN12C 18.2 µM | SK-MEL-2 21.1 µM | RPMI-8226 10.3 µM | OVCAR-8 13.7 µM | HOP-18 11 µM | OVCAR-3 13.5 µM | TK-10 16.4 µM | SF-295 20.4 µM | EKVX 12.1 µM | K562 2.29 µM

CSc1ccc2c(cc1=O)[C@@H](NC(=O)c1ccc(Cl)cc1)CCc1cc(O)c(O)c(O)c1-2
inactive: A549 53 µM | NCI-H460 43.5 µM | NCI-H23 32.1 µM | MOLT-4 26.3 µM | OVCAR-5 > 100 µM | SN12C 24.5 µM | SK-MEL-2 > 100 µM | RPMI-8226 23.3 µM | OVCAR-8 50 µM | HOP-18 > 100 µM | CAKI-1 45.9 µM | OVCAR-3 23.2 µM | TK-10 > 100 µM | SF-295 38.5 µM | EKVX 69.2 µM | K562 18.2 µM

COC(=O)c1nc(N)nc(O)c1CCCCCc1c(O)nc(N)nc1C(=O)OC
inactive: A549 > 50 µM | NCI-H460 > 50 µM | NCI-H23 > 50 µM | OVCAR-5 > 50 µM | SN12C > 50 µM | SK-MEL-2 > 50 µM | RPMI-8226 > 50 µM | OVCAR-8 > 50 µM | HOP-18 > 50 µM | CAKI-1 > 50 µM | OVCAR-3 > 50 µM | TK-10 > 50 µM | SF-295 > 50 µM | EKVX > 50 µM | K562 > 50 µM

Cn1c2c(c3ccccc31)CCN(CCN1CCN(c3cccc(Cl)c3)CC1)C2=O
inactive: A549 > 100 µM | NCI-H23 35.8 µM | MOLT-4 43.8 µM | SN12C 32.1 µM | RPMI-8226 21.6 µM | OVCAR-8 > 100 µM | HOP-18 > 100 µM | TK-10 > 100 µM | EKVX > 100 µM | K562 35.3 µM

CC(=O)c1c2c(cc3c1CC1(Cc4ccccc4C1=O)C3)CCC2 (stereo not drawn)
inactive: A549 28.2 µM | NCI-H460 28.6 µM | NCI-H23 16 µM | MOLT-4 10.6 µM | SR 15.3 µM | Hs-578T 28.8 µM | MCF7 17.1 µM | OVCAR-5 51.2 µM | SN12C 21.5 µM | SK-MEL-2 27.1 µM | RPMI-8226 5.66 µM | DU-145 34.7 µM | OVCAR-8 18 µM | CAKI-1 8.55 µM | OVCAR-3 15.1 µM | TK-10 20.5 µM | SF-295 25.2 µM | EKVX 7.06 µM | K562 16.3 µM

O=[N+]([O-])c1cc2ccc(N(CCO)CCO)nc2nc1N(CCO)CCO
inactive: A549 > 100 µM | NCI-H460 > 100 µM | NCI-H23 > 100 µM | MOLT-4 > 100 µM | SR 46.2 µM | Hs-578T > 100 µM | MCF7 > 100 µM | OVCAR-5 > 100 µM | SN12C > 100 µM | SK-MEL-2 > 100 µM | RPMI-8226 > 100 µM | DU-145 > 100 µM | OVCAR-8 > 100 µM | CAKI-1 > 100 µM | OVCAR-3 > 100 µM | TK-10 > 100 µM | SF-295 > 100 µM | EKVX > 100 µM | K562 > 100 µM

CC(=O)OCC1OC(c2c(OC(C)=O)cc(C)c3c(=O)cc(/C(C(C)=O)=C(\C)O)oc23)C(OC(C)=O)C(OC(C)=O)C1OC(C)=O (stereo not drawn)
inactive: A549 > 100 µM | NCI-H460 > 100 µM | NCI-H23 > 100 µM | MOLT-4 > 100 µM | SR > 100 µM | Hs-578T 84.9 µM | MCF7 > 100 µM | OVCAR-5 > 100 µM | SN12C > 100 µM | SK-MEL-2 > 100 µM | RPMI-8226 > 100 µM | DU-145 > 100 µM | OVCAR-8 > 100 µM | CAKI-1 > 100 µM | OVCAR-3 > 100 µM | TK-10 > 100 µM | SF-295 > 100 µM | EKVX > 100 µM | K562 > 100 µM

CCOC(=O)CCc1cccc2c1oc1c(CCNC(=O)OCC3c4ccccc4-c4ccccc43)cccc12
inactive: A549 > 100 µM | NCI-H460 > 100 µM | NCI-H23 25.6 µM | MOLT-4 > 100 µM | SR 22.5 µM | Hs-578T 4.17 µM | MCF7 36.4 µM | OVCAR-5 > 100 µM | SN12C > 100 µM | SK-MEL-2 76.6 µM | RPMI-8226 > 100 µM | DU-145 > 100 µM | OVCAR-8 24.9 µM | CAKI-1 12.9 µM | OVCAR-3 49 µM | TK-10 40.4 µM | SF-295 19.6 µM | EKVX > 100 µM | K562 > 100 µM

CCOC(=O)CN1CC(C2=C(O)CN(CC(=O)OCC)C2=O)=CC1=O
inactive: A549 > 100 µM | NCI-H460 > 100 µM | NCI-H23 > 100 µM | MOLT-4 > 100 µM | SR > 100 µM | Hs-578T > 100 µM | MCF7 > 100 µM | OVCAR-5 > 100 µM | SN12C > 100 µM | SK-MEL-2 > 100 µM | RPMI-8226 > 100 µM | DU-145 > 100 µM | OVCAR-8 > 100 µM | CAKI-1 > 100 µM | OVCAR-3 > 100 µM | TK-10 > 100 µM | SF-295 > 100 µM | EKVX > 100 µM | K562 > 100 µM

CC(C)=CCC[C@@H](C)c1c2nc3ccccc3sc-2c(C)c(=O)c1O
inactive: A549 5.62 µM | NCI-H460 2.22 µM | NCI-H23 5.93 µM | MOLT-4 2.32 µM | SR 2.23 µM | Hs-578T 9.66 µM | MCF7 8.3 µM | OVCAR-5 16.7 µM | SN12C 5.74 µM | SK-MEL-2 9.71 µM | RPMI-8226 4.11 µM | DU-145 17.5 µM | OVCAR-8 2.94 µM | CAKI-1 2.82 µM | OVCAR-3 9.35 µM | TK-10 12.8 µM | SF-295 3.78 µM | EKVX 7.62 µM | K562 8.22 µM
